For 39 compounds, activity results are on record in patent US8093274B2, “Inhibitors of protein prenyltransferases” (The Regents of the University of California, priority 2006, dated 2012).

Assay [1] has as its target GGTase I (substrate RhoA) (Homo sapiens, UniProt P49354+P53609). As to the kind of experiment: GGTase I filter-binding assay with RhoA as substrate. The format is biochemical. To be noted: 50 μM compound; DMSO = 100%; smaller numbers indicate better inhibition; second number of pair; read-out: % activity of GGTase I for protein RhoA in the presence of the compound. How it is done:
(§1) The pilot library was screened for inhibitors of protein geranylgeranyltransferase type I. Protein prenyltransferase assays were carried out by using filter binding. Two different substrates, RhoA and K-Ras4B, were used for the assay. RhoA ends with the CaaL motif and is an exclusive substrate for GGTase I, while K-Ras4B ends with the CaaX motif and is modified by both GGTase I and FTase.
(§2) The % activity of GGTase I was determined as follows: a working solution that contained each compound in DMSO at the concentration of 1 mM was prepared. The working solution was added to GGTase I reaction mixture so that the final concentration of the compound is 50 μM. GGTase I activity was assayed by incubating [^3H]GGPP with K-Ras4B or RhoA protein in the presence of GGTase I and examining radioactivity incorporated into the substrate protein by spotting onto a filter paper. After washing with TCA, ethanol and acetone, the radioactivity retained on the filter was determined by the use of a scintillation counter. GGTase I activity in the presence of DMSO was taken as a 100% value and the activity in the presence of the compound was shown as percent activity compared with the 100% value. […] For 6-aryl-4-mercapto-N-sulfonyl-piperidine-3-carboxylic acid 11 the 4-mercapto substituent appeared critical to endowing GGTase inhibitory activity. […] 4-Chlorobenzylthio substituent was the next best; 12 compounds out of 21 containing the 4-chlorobenzylthio moiety were active. 4-Benzylthio substituent was also good; 7 piperidines out of 21 bearing 4-benzylthio group were active. […] 19 imines (C15>C12=C41>C40>C01=C11>C05=C10=C30=C35=C37=C38>C02, C03, C04, C06, C39=C43) out of 21 appeared in the GGTIs. […] This corresponds to 47 6-aryl-4-mercapto-N-sulfonyl-piperidine-3-carboxylic acids out of 357 compounds.
(§3) A collection of 138 heterocycles was screened for their ability to inhibit the activity of human GGTase-I to geranylgeranylate K-Ras4B or RhoA. Purified GGTase-1 was incubated with its substrate protein K-Ras4B or RhoA, [^3H]GGPP, and the 138 compounds. After 30 min, the degree of incorporation of tritiated geranylgeranyl groups was measured using a scintillation counter.
The GGTase-I assay was carried out using RhoA as a substrate protein, GGTase-I (JENA Bioscience) and [3H]geranylgeranyl pyrophosphate. Incubation was for 30 min at 37 C. GGTase-H (or RabGGTase) assay was carried out using YPT1 as a substrate protein, GGTase-H (Calbiochem, San Diego, Calif.) plus REP1 (Calbiochem) and [3H]geranylgeranyl pyrophosphate. Incubation was for 30 min at 37 C. FIGS. 20D-20F show the three dimensional structure of GGTase I (D), FTsse (E) and GGTase II (F) which can be obtained from X-ray diffraction studies of protein crystals.

In assay [2] the target is GGTase I (substrate K-Ras4B) (Homo sapiens, UniProt P49354+P53609). As to the kind of experiment: GGTase I filter-binding assay with K-Ras4B as substrate. The format is biochemical. To be noted: 50 μM compound; DMSO = 100%; smaller numbers indicate better inhibition; first number of pair; read-out: % activity of GGTase I for protein K-Ras4B in the presence of the compound. The method, then: as §1, §2, §3

As to `COc1ccc([C@H]2C(C(=O)O)=C[C@@H](C(C)(C)C)N2S(=O)(=O)c2ccc(C)cc2)cc1OC`, the activity at 50 µM in assay [1] was 6.1%; in assay [2], 23.4%.
With `Cc1ccccc1S(=O)(=O)N1C(c2ccc(Cl)cc2)CC=C(C(=O)O)[C@@H]1c1cccc(Br)c1` (stereo partly drawn), the activity at 50 µM is 8.8% in assay [1] and 10.6% in assay [2].
For `Cc1cccc([C@H]2C(C(=O)O)=CCC(c3ccc(Cl)cc3)N2S(=O)(=O)c2ccccc2C)c1` (stereo partly drawn), in that order: 12.4% and 15.6%.
For `Cc1ccc(S(=O)(=O)N2C(c3ccc(Cl)c(Cl)c3)CC=C(C(=O)O)[C@@H]2c2cccc(C)c2)cc1` (stereo partly drawn), in that order: 10.3% and 12.6%.
Consider `Cc1ccccc1S(=O)(=O)N1C(c2ccc(Cl)cc2)CC=C(C(=O)O)[C@@H]1c1cccc(F)c1` (stereo partly drawn), for which the activity at 50 µM in assay [1] came to 3%; in assay [2], 5.4%.
Take `Cc1ccccc1S(=O)(=O)N1C(c2ccc(Cl)cc2)CC=C(C(=O)O)[C@@H]1c1ccccc1F` (stereo partly drawn): the figures for the activity at 50 µM in assay [1] and in assay [2] were 4.1% and 8.4%, respectively.
For `Cc1ccccc1S(=O)(=O)N1C(c2ccc(Cl)cc2)CC=C(C(=O)O)[C@@H]1c1ccc(F)cc1` (stereo partly drawn), in that order: 12.6% and 15.6%.
For `Cc1ccc(S(=O)(=O)N2C(c3ccc(Cl)c(Cl)c3)CC=C(C(=O)O)[C@@H]2c2ccc(Cl)cc2)cc1` (stereo partly drawn), in that order: 12.1% and 17.7%.
On the same counts, the results for `Cc1ccc([C@H]2C(C(=O)O)=CCC(c3ccc(Cl)c(Cl)c3)N2S(=O)(=O)c2ccc(C)cc2)cc1` (stereo partly drawn) are 15.6% and 12.4%.
`Cc1ccc(S(=O)(=O)N2C(c3cccc(Br)c3)CC=C(C(=O)O)[C@@H]2c2cccc(Br)c2)cc1` (stereo partly drawn): the activity at 50 µM in assay [1] stood at 3.7%; in assay [2], 9.4%.
For `Cc1ccc(S(=O)(=O)N2C(c3cccc(Cl)c3)CC=C(C(=O)O)[C@@H]2c2cccc(Br)c2)cc1` (stereo partly drawn), in that order: 7% and 11%.
For `Cc1ccc(S(=O)(=O)N2C(c3cccc(Br)c3)CC=C(C(=O)O)[C@@H]2c2cccc(Cl)c2)cc1` (stereo partly drawn), in that order: 7.9% and 9.8%.
For `Cc1ccc(S(=O)(=O)N2C(c3cccc(Cl)c3)CC=C(C(=O)O)[C@@H]2c2cccc(Cl)c2)cc1` (stereo partly drawn), in that order: 6% and 43.7%.
Take `Cc1ccc(S(=O)(=O)N2C(c3cccc(Br)c3)CC=C(C(=O)O)[C@@H]2c2cccc(C)c2)cc1` (stereo partly drawn): the results for the activity at 50 µM in assay [1] and in assay [2] were 14.3% and 16.1%, respectively.
For `Cc1ccc(S(=O)(=O)N2C(c3cccc(Br)c3)CC=C(C(=O)O)[C@@H]2c2cccc(F)c2)cc1` (stereo partly drawn), in that order: 15% and 17%.
For `Cc1ccc(S(=O)(=O)N2C(c3cccc(Br)c3)CC=C(C(=O)O)[C@@H]2c2ccccc2)cc1` (stereo partly drawn), in that order: 19.4% and 35.2%.
For `O=C(O)C1=CCC(c2ccc(Cl)cc2)N(S(=O)(=O)c2ccc(Cl)cc2)[C@H]1c1cccc(Br)c1` (stereo partly drawn), in that order: 5% and 8.6%.
Take `Cc1ccc(C2CC=C(C(=O)O)[C@H](c3cccc(Br)c3)N2S(=O)(=O)c2ccc(Cl)cc2)cc1` (stereo partly drawn): the activity at 50 µM in assay [1] was 7.4%; in assay [2], 8.4%.
On the same counts, the results for `C=CCS[C@H]1[C@@H](C(=O)O)[C@H](c2ccc(Cl)c(Cl)c2)N(S(=O)(=O)c2ccc(C)cc2)[C@@H]1CCCC` are 9.6% and 21.4%.
For `CC[C@@H]1[C@@H](SCCC(=O)OC(C)(C)C)[C@@H](C(=O)O)[C@H](c2ccc(Cl)c(Cl)c2)N1S(=O)(=O)c1ccc(C)cc1`, in that order: 7.6% and 27.2%.
`CCC[C@@H]1[C@@H](Sc2ccc(OC)cc2)[C@@H](C(=O)O)[C@H](c2ccc(Cl)c(Cl)c2)N1S(=O)(=O)c1ccc(C)cc1`: the activity at 50 µM was 1.1% in assay [1] and 10.9% in assay [2].
For `C=CCS[C@H]1[C@@H](C(=O)O)[C@H](c2ccc(Cl)c(Cl)c2)N(S(=O)(=O)c2ccc(C)cc2)[C@@H]1CCCCCC`, in that order: 6.8% and 15.1%.
Regarding `Cc1ccc(S(=O)(=O)N2[C@H](CC3CCCC3)[C@@H](SCCC(=O)OC(C)(C)C)[C@@H](C(=O)O)[C@@H]2c2ccc(Cl)c(Cl)c2)cc1`, the activity at 50 µM in assay [1] came to 7.3%; in assay [2] it was 16.1%.
On the same counts, the results for `C=CCS[C@H]1[C@@H](C(=O)O)[C@H](c2ccc(Cl)c(Cl)c2)N(S(=O)(=O)c2ccc(C)cc2)[C@@H]1CC1CCCC1` are 8.6% and 12.1%.
For `C=CCS[C@H]1[C@@H](C(=O)O)[C@H](c2ccc(Cl)cc2)N(S(=O)(=O)c2ccccc2C)[C@@H]1CCC`, in that order: 8.9% and 28.4%.
For `Cc1ccccc1S(=O)(=O)N1[C@H](CC2CCCC2)[C@@H](SCCC(=O)OC(C)(C)C)[C@@H](C(=O)O)[C@@H]1c1ccc(Cl)cc1`, in that order: 7.8% and 10%.
`C=CCS[C@H]1[C@@H](C(=O)O)[C@H](c2ccc(Cl)cc2)N(S(=O)(=O)c2ccccc2C)[C@@H]1CCCC`: the results for the activity at 50 µM in assay [1] and in assay [2] were 8.4% and 23.1%, respectively.
As for `C=CCS[C@H]1[C@@H](C(=O)O)[C@H](c2ccc(Cl)cc2)N(S(=O)(=O)c2ccccc2C)[C@@H]1CCCCCC`, the activity at 50 µM is 6% in assay [1] and 24.9% in assay [2].
For `C=CCS[C@H]1[C@@H](C(=O)O)[C@H](c2ccc(Cl)cc2)N(S(=O)(=O)c2ccccc2C)[C@@H]1CC1CCCC1`, in that order: 4.9% and 22.4%.
For `CCC[C@@H]1[C@@H](SCCC(=O)OC(C)(C)C)[C@@H](C(=O)O)[C@H](c2ccc(Cl)cc2)N1S(=O)(=O)c1ccc(Cl)cc1`, in that order: 9.2% and 21.7%.
On the same counts, the results for `COc1ccc(S[C@H]2[C@@H](C(=O)O)[C@H](c3ccc(Cl)cc3)N(S(=O)(=O)c3ccc(Cl)cc3)[C@@H]2C(C)C)cc1` are 8% and 48.7%.
For `CC(C)(C)OC(=O)CCS[C@H]1[C@@H](C(=O)O)[C@H](c2ccc(Cl)cc2)N(S(=O)(=O)c2ccc(Cl)cc2)[C@@H]1CC1CCCC1`, the activity at 50 µM amounted to 9.8% in assay [1] and 22.5% in assay [2].
For `CC(C)(C)OC(=O)CCS[C@H]1[C@@H](C(=O)O)[C@H](c2ccc(Cl)cc2)N(S(=O)(=O)c2ccccc2)[C@@H]1CC1CCCC1`, in that order: 9.7% and 30.4%.
For `C=CCS[C@H]1[C@@H](C(=O)O)[C@H](c2ccc(C#N)cc2)N(S(=O)(=O)c2ccc(C)cc2)[C@@H]1C(C)C`, in that order: 9.3% and 23.1%.
On the same counts, the results for `C=CCS[C@H]1[C@@H](C(=O)O)[C@H](c2ccc(C#N)cc2)N(S(=O)(=O)c2ccc(C)cc2)[C@@H]1CCCCCC` are 6% and 21.5%.
For `C=CCS[C@H]1[C@@H](C(=O)O)[C@H](c2ccc(Br)cc2)N(S(=O)(=O)c2ccc(C)cc2)[C@@H]1CCC`, the activity at 50 µM is 7.5% in assay [1] and 9.8% in assay [2].
With `C=CCS[C@H]1[C@@H](C(=O)O)[C@H](c2ccc(Br)cc2)N(S(=O)(=O)c2ccc(C)cc2)[C@@H]1CCCCCC`, the activity at 50 µM in assay [1] came to 5.5%; in assay [2], 15.5%.
On the same counts, the results for `Cc1ccc(S(=O)(=O)N2[C@H](CC3CCCC3)[C@@H](SCCC(=O)OC(C)(C)C)[C@@H](C(=O)O)[C@@H]2c2cccc(Cl)c2)cc1` are 5.6% and 20.6%.
On the same counts, the results for `CC[C@@H]1[C@@H](Sc2ccc(OC)cc2)[C@@H](C(=O)O)[C@H](c2cccc(Cl)c2)N1S(=O)(=O)c1ccc(C)cc1` are 6.5% and 25.5%.
